Results on six compounds are retold here after paper PMC3003779 (Chemistry & biology, 2010).

Data set [1] relates to SHR and WKY rats. Description: mean arterial pressure and heart rate in anesthetized rats. To be noted: for hypotensive effect: 0.3 mg/kg. It is filed as in vivo, rat.
The target of data set [2] is T1, FAAH (Mus musculus, UniProt O08914).
T1 sequence (O08914 1-579): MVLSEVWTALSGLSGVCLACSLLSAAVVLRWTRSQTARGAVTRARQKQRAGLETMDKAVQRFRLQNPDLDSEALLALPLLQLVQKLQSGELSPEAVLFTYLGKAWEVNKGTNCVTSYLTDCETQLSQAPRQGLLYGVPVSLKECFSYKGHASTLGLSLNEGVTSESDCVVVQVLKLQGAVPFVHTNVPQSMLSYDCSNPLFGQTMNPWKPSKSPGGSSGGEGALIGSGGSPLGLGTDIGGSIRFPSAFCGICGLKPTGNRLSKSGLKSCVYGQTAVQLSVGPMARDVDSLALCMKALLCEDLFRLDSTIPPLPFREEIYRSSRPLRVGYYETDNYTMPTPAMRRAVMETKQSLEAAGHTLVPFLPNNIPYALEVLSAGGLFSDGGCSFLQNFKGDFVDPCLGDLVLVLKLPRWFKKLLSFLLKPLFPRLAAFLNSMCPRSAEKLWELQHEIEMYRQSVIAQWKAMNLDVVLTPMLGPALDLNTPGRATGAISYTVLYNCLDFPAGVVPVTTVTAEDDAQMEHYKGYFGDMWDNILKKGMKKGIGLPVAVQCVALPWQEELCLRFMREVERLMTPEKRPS
Format: cell-based.

The test system of data set [3] is mice with diet-induced obesity. Description: intraperitoneal glucose tolerance test in mice on high-fat diet. It is filed as in vivo, mouse.
Data set [4] has as its system anandamide levels in hepatocytes. Description: anandamide levels in hepatocytes. Format: cell-based, mouse. To be noted: 100 nM, dense suspension 40 mg/mL.
For another data set, the system named is Mouse hepatocytes. Description: drug levels in hepatocyte suspensions by LC/MS/MS.
Data set [5] concerns the target T1, FAAH. Description: FAAH activity in brain and liver homogenates, drug added in vitro. Format: biochemical.
Data set [6] addresses T1, FAAH. Description: in vivo. It is filed as in vivo. The settings on record: mouse.
The test system of data set [7] is SHR and WKY rats. Description: non-fasting blood glucose in rats. To be noted: 10 mg/kg i.p.
The next data set has as its target CB1 receptor (Rattus norvegicus, UniProt P20272). Description: HU210-stimulated [35S]GTPγS binding in brain membranes. To be noted: brain membrane preparations, SHR vs WKY. It is filed as biochemical.
The next data set has as its target T2, human recombinant FAAH (Homo sapiens, UniProt O00519).
T2 sequence (O00519 1-579): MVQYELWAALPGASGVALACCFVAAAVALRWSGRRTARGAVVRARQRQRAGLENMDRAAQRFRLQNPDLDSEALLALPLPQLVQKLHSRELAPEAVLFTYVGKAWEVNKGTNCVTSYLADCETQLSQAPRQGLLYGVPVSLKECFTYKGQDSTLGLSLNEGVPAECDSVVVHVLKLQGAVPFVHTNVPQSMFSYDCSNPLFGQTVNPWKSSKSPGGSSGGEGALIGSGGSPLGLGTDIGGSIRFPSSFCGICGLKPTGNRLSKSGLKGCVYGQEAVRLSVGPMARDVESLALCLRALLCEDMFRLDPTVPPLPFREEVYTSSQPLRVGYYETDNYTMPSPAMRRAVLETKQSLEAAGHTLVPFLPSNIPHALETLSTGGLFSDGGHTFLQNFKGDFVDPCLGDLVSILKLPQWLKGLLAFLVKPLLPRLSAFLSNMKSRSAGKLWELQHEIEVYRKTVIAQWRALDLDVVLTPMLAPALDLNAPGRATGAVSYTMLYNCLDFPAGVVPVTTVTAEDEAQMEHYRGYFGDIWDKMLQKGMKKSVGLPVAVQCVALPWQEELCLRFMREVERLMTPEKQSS
Description: biochemical. The settings on record: in vitro.

Like-named read-outs stand apart in the source and are kept apart here.

CB1 receptor, sequence (P20272 whole entry): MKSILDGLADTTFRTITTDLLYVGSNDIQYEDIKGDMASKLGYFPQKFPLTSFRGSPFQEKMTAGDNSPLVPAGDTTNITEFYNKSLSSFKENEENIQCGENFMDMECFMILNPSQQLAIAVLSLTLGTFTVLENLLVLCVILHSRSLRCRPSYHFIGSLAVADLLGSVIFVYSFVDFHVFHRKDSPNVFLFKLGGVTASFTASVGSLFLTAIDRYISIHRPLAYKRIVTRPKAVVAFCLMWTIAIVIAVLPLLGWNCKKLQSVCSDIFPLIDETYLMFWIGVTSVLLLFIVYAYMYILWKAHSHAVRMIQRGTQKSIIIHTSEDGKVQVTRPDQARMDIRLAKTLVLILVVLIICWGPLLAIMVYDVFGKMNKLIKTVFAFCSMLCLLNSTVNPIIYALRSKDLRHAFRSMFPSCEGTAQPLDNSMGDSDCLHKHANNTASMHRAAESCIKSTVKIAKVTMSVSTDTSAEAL

As for `Cc1c(C(=O)NN2CCCCC2)nn(-c2ccc(Cl)cc2Cl)c1-c1ccc(Cl)cc1` [rimonabant], in the data set with SHR and WKY rats [1] (SHR, 3 mg/kg, after AM3506), the “ΔHR, acute reversal of AM3506 effect” value is “+129±14 bpm” and the “ΔMBP, acute reversal of AM3506 effect” value was “+101±9 mmHg”.

Regarding `NC(=O)c1cccc(-c2cccc(OC(=O)NC3CCCCC3)c2)c1` [URB597, reference compound], the “FAAH activity in cell pellet, dilute hepatocyte suspension” value on FAAH [2] was “nearly completely blocked”. The “FAAH activity in cells, dense hepatocyte suspension” value on FAAH [2] is “rapidly and nearly completely blocked”. The “ipGTT area under the curve (AUC)” value was found to be 337 ± 14 mg·h/dL in [3] (liver-specific CB1 knockout (LCB1−/−) mice on HFD, vehicle 322±37) and 570 ± 45 mg·h/dL in data set [3] (male DIO mice, 1.38 mg/kg i.p. 60 min before glucose, vehicle 352±28). In addition, the “effect on glucose tolerance” value is on record as “failed to affect glucose tolerance” in data set [3] (liver-specific CB1−/− mice on HFD, 1.38 mg/kg); “remained ineffective” in data set [3] (liver-specific CB1−/− mice on HFD, 10 mg/kg); “marked increase in glucose intolerance” in [3] (male DIO mice, 1.38 mg/kg); “same degree of glucose intolerance” in data set [3] (wild-type mice on HFD, 10 mg/kg, compared with the lower dose). For the same compound, the “anandamide levels in hepatocytes” value in data set [4] is recorded as “markedly increased”. Also, in the data set with Mouse hepatocytes (0 to 30 min, no hepatocytes), the “recovery of drug from cell-free medium” value is “remained constant”. Moreover, the “drug level in cell pellets, dense hepatocyte suspension” value in the data set on Mouse hepatocytes (100 nM, 40 mg/mL) is given as “gradually declined over 10 min”. Besides, the “drug level in medium, dense hepatocyte suspension” value with Mouse hepatocytes (100 nM, 40 mg/mL) is reported as “rapidly depleted from the medium”. The “free drug (parent ion) still present in cell-free supernatant” value with Mouse hepatocytes (dilute hepatocyte suspension 1 mg/mL, 100 nM, 10 min, % of drug added at 0 min) is given as 50–55%. Also, the “hypotensive/bradycardic potency, times less potent than AM3506” value in the data set on SHR and WKY rats [1] (anesthetized SHR) was ~ 40 times. Also, the “FAAH activity in tissue homogenates” value at FAAH [5] was “equally effective in blocking FAAH activity in brain and liver”. For the same compound, the “suppression of FAAH activity in brain” value at FAAH [6] (in vivo, po, 10 mg/kg) is recorded as 86±2%. Besides, the “suppression of FAAH activity in liver” value at FAAH [6] (in vivo, po, 10 mg/kg) came out at 83±0.5%. The ED50 at FAAH [6] (read-out: ID50, inhibition of brain FAAH activity) turned out to be 0.22 mg/kg; on FAAH [6] (read-out: ID50, inhibition of liver FAAH activity) it was 0.45 mg/kg. In addition, the “non-fasting blood glucose after treatment” value is 144.0 ± 9.6 mg/dL with SHR and WKY rats [7] (SHR, from 104.0±7.4); 135.3 ± 12.9 mg/dL in the data set on SHR and WKY rats [7] (WKY, from 90.0±7.2).

With `Cc1c(C(=O)NN2CCCCC2)nn(-c2ccc(Cl)cc2Cl)c1-c1ccc(I)cc1` [AM251], the “effect on the effects of HU210” value in the data set on SHR and WKY rats [1] (SHR and WKY) is listed as “abolished”. In the data set with SHR and WKY rats [1] (SHR, 3 mg/kg i.p. 60 min before 1 mg/kg AM3506 i.v.), the “effect of pretreatment on the MAP and HR effects of AM3506” value is “prevented”. Besides, in the data set on SHR and WKY rats [1] (SHR, 3 mg/kg i.v. at the peak hypotensive response to 1 mg/kg AM3506), the “acute reversal of the fully developed effects of AM3506” value was “acutely reversed”.

Turning to `CCCCCCC(C)(C)c1cc(O)c2c(c1)OC(C)(C)[C@@H]1CC=C(CO)C[C@@H]21` [HU210], the “hypotension, SHR compared with WKY” value with SHR and WKY rats [1] (1 μg/kg i.v., anaesthetized rats) is given as “much greater hypotension in SHR than in WKY”. Further, the “CB1 receptor coupling efficiency, HU210-stimulated GTPγS labeling” value at CB1 receptor was “dramatically increased”.

For the compound `CCCCCOc1ccc(C(=O)c2cccc3ccccc23)c2ccccc12` [CB13], the hypotensive effect in the data set with SHR and WKY rats [1] (SHR) was −40±6 mmHg; with SHR and WKY rats [1] (WKY), −36±10 mmHg.

As to `O=S(=O)(F)Cc1ccccc1` [PMSF, phenyl methyl sulfonyl fluoride, reference compound], the “potency against human recombinant FAAH relative to AM3506 and URB597” value at human recombinant FAAH is 3 orders of magnitude less potent.
